Measured values as given in the supplement of paper PMC10307832.

How the values were obtained:
Test in all cases: relative viability (nuclei count vs DMSO), 5 days (fraction); higher = more cells survive
201T = system: 201T
Outline: (§1)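 For relative viability, nuclei counts in treated wells were divided by those in vehicle wells. Lung cancer cell lines had been pin-tool dosed in 1536-well plates the day after seeding and cultured for 5 days, then fixed and stained in one step (final 0.05% Triton X-100, 1% formaldehyde, 1 ug/ml Hoechst) and imaged at 4×. Doses were one drug alone or a fixed anchor-drug dose plus five library-drug doses (not always all listed) in √10 steps, and values are duplicate-plate medians.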

A-427 = system: A-427
Outline: as §1

ABC-1 = system: ABC-1
Outline: as §1

COR-L 105 = system: COR-L 105
Outline: as §1

COR-L23 = system: COR-L23
Outline: as §1

EKVX = system: EKVX
Outline: as §1

EMC-BAC-2 = system: EMC-BAC-2
Outline: as §1

EPLC-272H = system: EPLC-272H
Outline: as §1

HCC-827 = system: HCC-827
Outline: as §1

LCLC-103H = system: LCLC-103H
Outline: as §1

LU99A = system: LU99A
Outline: as §1

NCI-H1437 = system: NCI-H1437
Outline: as §1

NCI-H1666 = system: NCI-H1666
Outline: as §1

NCI-H1792 = system: NCI-H1792
Outline: as §1

NCI-H2009 = system: NCI-H2009
Outline: as §1

NCI-H2023 = system: NCI-H2023
Outline: as §1

NCI-H2087 = system: NCI-H2087
Outline: as §1

NCI-H3122 = system: NCI-H3122
Outline: as §1

NCI-H520 = system: NCI-H520
Outline: as §1

PC-14 = system: PC-14
Outline: as §1

RERF-LC-KJ = system: RERF-LC-KJ
Outline: as §1

SK-LU-1 = system: SK-LU-1
Outline: as §1

SW 1573 = system: SW 1573
Outline: as §1

SW 900 = system: SW 900
Outline: as §1

Nc1cccc2c1CN(C1CCC(=O)NC1=O)C2=O (stereo not drawn) [Lenalidomide] + Cc1nc(Nc2ncc(C(=O)Nc3c(C)cccc3Cl)s2)cc(N2CCN(CCO)CC2)n1 [Dasatinib] (partner 0.075 µM)
relative viability (201T; first compound 0.253 µM): 0.598
relative viability (201T; first compound 2.53 µM): 0.581
relative viability (201T; first compound 8 µM): 0.538
relative viability (A-427; first compound 0.253 µM): 0.58
relative viability (A-427; first compound 0.8 µM): 0.851
relative viability (A-427; first compound 2.53 µM): 0.752
relative viability (A-427; first compound 8 µM): 0.644
relative viability (ABC-1; first compound 0.253 µM): 0.591
relative viability (ABC-1; first compound 0.8 µM): 0.482
relative viability (ABC-1; first compound 2.53 µM): 0.602
relative viability (ABC-1; first compound 8 µM): 0.55
relative viability (COR-L 105; first compound 0.253 µM): 0.433
relative viability (COR-L 105; first compound 0.8 µM): 0.331
relative viability (COR-L 105; first compound 2.53 µM): 0.427
relative viability (COR-L 105; first compound 8 µM): 0.371
relative viability (COR-L23; first compound 0.253 µM): 0.541
relative viability (COR-L23; first compound 0.8 µM): 0.507
relative viability (COR-L23; first compound 2.53 µM): 0.63
relative viability (COR-L23; first compound 8 µM): 0.569
relative viability (EKVX; first compound 0.253 µM): 0.613
relative viability (EKVX; first compound 0.8 µM): 0.495
relative viability (EKVX; first compound 2.53 µM): 0.575
relative viability (EKVX; first compound 8 µM): 0.499
relative viability (EMC-BAC-2; first compound 0.253 µM): 0.319
relative viability (EMC-BAC-2; first compound 0.8 µM): 0.28
relative viability (EMC-BAC-2; first compound 2.53 µM): 0.33
relative viability (EMC-BAC-2; first compound 8 µM): 0.256
relative viability (EPLC-272H; first compound 0.253 µM): 0.379
relative viability (EPLC-272H; first compound 0.8 µM): 0.358
relative viability (EPLC-272H; first compound 2.53 µM): 0.321
relative viability (EPLC-272H; first compound 8 µM): 0.235
relative viability (HCC-827; first compound 0.253 µM): 0.291
relative viability (HCC-827; first compound 0.8 µM): 0.416
relative viability (HCC-827; first compound 2.53 µM): 0.341
relative viability (HCC-827; first compound 8 µM): 0.312
relative viability (LCLC-103H; first compound 0.253 µM): 0.442
relative viability (LCLC-103H; first compound 0.8 µM): 0.325
relative viability (LCLC-103H; first compound 2.53 µM): 0.453
relative viability (LCLC-103H; first compound 8 µM): 0.296
relative viability (LU99A; first compound 0.253 µM): 0.473
relative viability (LU99A; first compound 0.8 µM): 0.471
relative viability (LU99A; first compound 2.53 µM): 0.54
relative viability (LU99A; first compound 8 µM): 0.308
relative viability (NCI-H1437; first compound 0.253 µM): 0.536
relative viability (NCI-H1437; first compound 0.8 µM): 0.45
relative viability (NCI-H1437; first compound 2.53 µM): 0.485
relative viability (NCI-H1437; first compound 8 µM): 0.442
relative viability (NCI-H1666; first compound 0.253 µM): 0.858
relative viability (NCI-H1666; first compound 2.53 µM): 0.849
relative viability (NCI-H1666; first compound 8 µM): 0.783
relative viability (NCI-H1792; first compound 0.253 µM): 0.8
relative viability (NCI-H1792; first compound 0.8 µM): 0.69
relative viability (NCI-H1792; first compound 2.53 µM): 0.893
relative viability (NCI-H1792; first compound 8 µM): 0.865
relative viability (NCI-H2009; first compound 0.253 µM): 0.326
relative viability (NCI-H2009; first compound 0.8 µM): 0.299
relative viability (NCI-H2009; first compound 2.53 µM): 0.351
relative viability (NCI-H2009; first compound 8 µM): 0.284
relative viability (NCI-H2023; first compound 0.253 µM): 0.612
relative viability (NCI-H2023; first compound 0.8 µM): 0.515
relative viability (NCI-H2023; first compound 2.53 µM): 0.608
relative viability (NCI-H2023; first compound 8 µM): 0.416
relative viability (NCI-H2087; first compound 0.253 µM): 0.865
relative viability (NCI-H2087; first compound 0.8 µM): 0.851
relative viability (NCI-H2087; first compound 2.53 µM): 0.928
relative viability (NCI-H2087; first compound 8 µM): 0.829
relative viability (NCI-H3122; first compound 0.253 µM): 0.897
relative viability (NCI-H3122; first compound 0.8 µM): 0.991
relative viability (NCI-H3122; first compound 2.53 µM): 0.746
relative viability (NCI-H3122; first compound 8 µM): 0.677
relative viability (NCI-H520; first compound 0.253 µM): 0.188
relative viability (NCI-H520; first compound 0.8 µM): 0.192
relative viability (NCI-H520; first compound 2.53 µM): 0.235
relative viability (NCI-H520; first compound 8 µM): 0.159
relative viability (PC-14; first compound 0.253 µM): 0.236
relative viability (PC-14; first compound 0.8 µM): 0.28
relative viability (PC-14; first compound 2.53 µM): 0.281
relative viability (PC-14; first compound 8 µM): 0.304
relative viability (RERF-LC-KJ; first compound 0.253 µM): 0.777
relative viability (RERF-LC-KJ; first compound 0.8 µM): 0.746
relative viability (RERF-LC-KJ; first compound 2.53 µM): 0.828
relative viability (RERF-LC-KJ; first compound 8 µM): 0.793
relative viability (SK-LU-1; first compound 0.253 µM): 0.175
relative viability (SK-LU-1; first compound 0.8 µM): 0.206
relative viability (SK-LU-1; first compound 2.53 µM): 0.178
relative viability (SK-LU-1; first compound 8 µM): 0.143
relative viability (SW 1573; first compound 0.253 µM): 0.637
relative viability (SW 1573; first compound 0.8 µM): 0.547
relative viability (SW 1573; first compound 2.53 µM): 0.455
relative viability (SW 1573; first compound 8 µM): 0.392
relative viability (SW 900; first compound 0.253 µM): 0.498
relative viability (SW 900; first compound 2.53 µM): 0.606
relative viability (SW 900; first compound 8 µM): 0.828
